From the NIST ThermoML archive (doi:10.1021/acs.jced.8b00201)

Test: xn = mol fraction of the nth substance listed
Conditions: 100 kPa, Liquid; for viscosity: Concentric cylinders viscometry; for mass density: Vibrating tube method

CCCCCCCCCO [nonan-1-ol] + O=C1CCCCC1
Conditions	mass density [kg/m3]	viscosity [mPa·s]
293.15 K, x2 = 0	827.5	11.41
293.15 K, x2 = 0.0813	833.2	9.78
293.15 K, x2 = 0.1582	839	8.31
293.15 K, x2 = 0.2378	845.5	6.98
293.15 K, x2 = 0.3573	856.3	5.42
293.15 K, x2 = 0.4381	864.3	4.61
293.15 K, x2 = 0.5589	877.9	3.69
293.15 K, x2 = 0.6488	889.3	3.2
293.15 K, x2 = 0.724	899.9	2.96
293.15 K, x2 = 0.8481	919.6	2.55
293.15 K, x2 = 0.9411	936.8	2.33
298.15 K, x2 = 0	824	9.43
298.15 K, x2 = 0.0813	829.6	8.15
298.15 K, x2 = 0.1582	835.2	6.94
298.15 K, x2 = 0.2378	841.5	5.92
298.15 K, x2 = 0.3573	852.1	4.68
298.15 K, x2 = 0.4381	860	4.01
298.15 K, x2 = 0.5589	873.3	3.21
298.15 K, x2 = 0.6488	884.6	2.8
298.15 K, x2 = 0.724	895	2.59
298.15 K, x2 = 0.8481	914.4	2.24
298.15 K, x2 = 0.9411	931.2	2.11
303.15 K, x2 = 0	820.5	7.86
303.15 K, x2 = 0.0813	825.9	6.78
303.15 K, x2 = 0.1582	831.5	5.87
303.15 K, x2 = 0.2378	837.7	5.03
303.15 K, x2 = 0.3573	848.1	4.03
303.15 K, x2 = 0.4381	855.9	3.49
303.15 K, x2 = 0.5589	869.1	2.87
303.15 K, x2 = 0.6488	880.2	2.53
303.15 K, x2 = 0.724	890.5	2.37
303.15 K, x2 = 0.8481	909.6	2.08
303.15 K, x2 = 0.9411	926.3	1.95
308.15 K, x2 = 0	817.1	6.61
308.15 K, x2 = 0.0813	822.4	5.73
308.15 K, x2 = 0.1582	827.9	4.96
308.15 K, x2 = 0.2378	834	4.31
308.15 K, x2 = 0.3573	844.3	3.51
308.15 K, x2 = 0.4381	852	3.08
308.15 K, x2 = 0.5589	865	2.57
308.15 K, x2 = 0.6488	876	2.3
308.15 K, x2 = 0.724	886.2	2.16
308.15 K, x2 = 0.8481	905.2	1.93
308.15 K, x2 = 0.9411	921.7	1.79
313.15 K, x2 = 0	813.6	5.6
313.15 K, x2 = 0.0813	818.9	4.85
313.15 K, x2 = 0.1582	824.2	4.2
313.15 K, x2 = 0.2378	830.2	3.68
313.15 K, x2 = 0.3573	840.3	3.04
313.15 K, x2 = 0.4381	847.9	2.71
313.15 K, x2 = 0.5589	860.8	2.33
313.15 K, x2 = 0.6488	871.6	2.13
313.15 K, x2 = 0.724	881.8	2.02
313.15 K, x2 = 0.8481	900.6	1.81
313.15 K, x2 = 0.9411	917.1	1.67
318.15 K, x2 = 0	810.1	4.78
318.15 K, x2 = 0.0813	815.3	4.18
318.15 K, x2 = 0.1582	820.5	3.67
318.15 K, x2 = 0.2378	826.4	3.22
318.15 K, x2 = 0.3573	836.4	2.66
318.15 K, x2 = 0.4381	844	2.37
318.15 K, x2 = 0.5589	856.7	2.03
318.15 K, x2 = 0.6488	867.4	1.85
318.15 K, x2 = 0.724	877.5	1.77
318.15 K, x2 = 0.8481	896.3	1.59
318.15 K, x2 = 0.9411	912.8	1.5
323.15 K, x2 = 0	806.5	4.1
323.15 K, x2 = 0.0813	811.6	3.61
323.15 K, x2 = 0.1582	816.8	3.2
323.15 K, x2 = 0.2378	822.7	2.84
323.15 K, x2 = 0.3573	832.6	2.4
323.15 K, x2 = 0.4381	840.1	2.17
323.15 K, x2 = 0.5589	852.8	1.9
323.15 K, x2 = 0.6488	863.6	1.75
323.15 K, x2 = 0.724	873.7	1.67
323.15 K, x2 = 0.8481	892.5	1.49
323.15 K, x2 = 0.9411	908.9	1.4
